Measurements taken from PMC4175339, “Inhibition of the Functional Interplay between Endoplasmic Reticulum (ER) Oxidoreduclin-1α (Ero1α) and Protein-disulfide Isomerase (PDI) by the Endocrine Disruptor Bisphenol A” (The Journal of Biological Chemistry, 2014).

Biological target: T1, human PDI + hyperactive human Ero1α (Ero1α-mediated PDI oxidation) (Homo sapiens, UniProt P07237)
T1 construct: gene P4HB; recombinant from E. coli; with ERO1-like protein alpha
Assay: NADPH consumption assay coupled to glutathione reductase, A340
Type: biochemical

T1 sequence (P07237 18-508): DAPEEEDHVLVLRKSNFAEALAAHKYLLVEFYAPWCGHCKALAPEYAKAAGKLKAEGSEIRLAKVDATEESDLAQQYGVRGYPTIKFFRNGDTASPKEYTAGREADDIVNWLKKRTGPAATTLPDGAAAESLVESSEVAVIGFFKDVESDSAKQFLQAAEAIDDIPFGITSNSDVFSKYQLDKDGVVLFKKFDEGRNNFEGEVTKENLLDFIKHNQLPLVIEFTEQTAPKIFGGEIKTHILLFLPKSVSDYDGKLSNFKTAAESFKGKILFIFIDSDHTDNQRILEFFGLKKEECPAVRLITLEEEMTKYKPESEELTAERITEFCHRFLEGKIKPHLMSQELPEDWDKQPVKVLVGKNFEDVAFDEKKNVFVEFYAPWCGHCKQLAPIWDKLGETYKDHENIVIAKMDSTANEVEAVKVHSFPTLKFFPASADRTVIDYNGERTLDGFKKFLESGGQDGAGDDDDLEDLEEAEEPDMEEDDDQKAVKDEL
T1 sequence (Q96HE7 24-468 C104A/C131A partner): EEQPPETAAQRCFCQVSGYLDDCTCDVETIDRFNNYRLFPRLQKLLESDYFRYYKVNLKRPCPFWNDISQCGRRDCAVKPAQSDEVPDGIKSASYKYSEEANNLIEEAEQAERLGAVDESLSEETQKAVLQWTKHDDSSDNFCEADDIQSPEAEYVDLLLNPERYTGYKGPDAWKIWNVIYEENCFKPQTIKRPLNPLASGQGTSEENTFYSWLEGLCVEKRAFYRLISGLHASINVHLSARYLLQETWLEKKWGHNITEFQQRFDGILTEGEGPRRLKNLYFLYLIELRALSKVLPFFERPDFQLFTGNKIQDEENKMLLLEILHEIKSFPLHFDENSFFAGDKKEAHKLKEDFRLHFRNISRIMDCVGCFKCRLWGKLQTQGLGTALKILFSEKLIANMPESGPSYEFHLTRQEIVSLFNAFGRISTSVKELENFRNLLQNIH

CC(C)(c1ccc(O)cc1)c1ccc(O)cc1 [bisphenol A, 2,2′-bis(4-hydroxyphenyl) propane]
IC50: 41 µM
